Assays:
Assay type in all cases: cell-based
[1] = system: Ba/F3-ETV6-BTK-T474I cells; assay: Viability assay of Ba/F3-ETV6-BTK-T474I cells (CTG); details: Mus musculus, BaF3, cell viability, 72 hours
Method: The in vitro antiproliferative activity of the compounds of the present disclosure against Ba/F3-ETV6-BTK-T474I cells was assayed using CTG luminescent cell viability assay. The specific assay methods were as follows: • a) Ba/F3-ETV6-BTK-T474I cells were cultured at 37 °C and 5% CO2 in complete medium [RPMI 1640 (supplier Gibco, product number 22400-089) + 10% FBS (supplier Gibco, product number 10091-148)]. • b) Cells in the logarithmic growth phase were harvested, and cell counting was performed using a […]. Trypan blue exclusion test was used to determine the cell viability, ensuring that the cell viability was above 90%. • c) Cell density was adjusted using complete culture medium. Then, the cells were inoculated at 90 µL, a total of 3000 cells per well in a 96-well cell culture plate (supplier: Shanghai Jing An Biotechnology Co., Ltd., product number J09601). • d) The cells in the 96-well plate were cultured at 37 °C and 5% CO2. • e) A 10-fold drug solution was prepared, and then 10 µL of each serially diluted compound was transferred to the corresponding assay wells of the 96-well cell plate so that the final assay concentration was 1000 nM, with 9 concentrations, 3.16-fold dilutions, and triplicates for each drug concentration. • f) The cells in the 96-well plate with the drug added were cultured at 37 °C and 5% CO2 for another 72 hours. Then, CTG analysis was performed. • g) The CTG reagent was melted, and the cell plate was equilibrated at room temperature for 30 minutes. • h) An equal volume of CTG solution was added to each well. • i) The plate was shaken on an orbital shaker for 5 minutes to lyse the cells. • j) The cell plate was placed at room temperature for 20 minutes to stabilize the luminescent signal. • k) The luminescent signal values were read and the data were collected.
The data were analyzed using GraphPad Prism 7.0 software. Nonlinear S-curve regression was used to fit the data to give a dose-response curve, from which the IC50 values were calculated. [formula]

TMD8 cells = assay: Viability assay of TMD8 cells (CTG); details: Homo sapiens, cell viability, 120 hours
Method: (§1) The in vitro antiproliferative activity of the compounds of the present disclosure against TMD8 cells and OCI-LY10 cells was assayed using CTG (Cell Titer-Glo) luminescent cell viability assay. The specific assay methods were as follows. • a) TMD8 cells were cultured at 37 °C and 5% CO2 in complete medium [RPMI 1640 (supplier Gibco, product number 22400-089) + 10% FBS (supplier Gibco, product number 10091-148) + 1% P/S (supplier Hyclone, product number SV30010)]; OCI-LY10 cells were cultured at 37 °C and 5% CO2 in medium [IMDM (supplier Gibco, product number 31980-030) + 20% FBS (supplier Gibco, product number 10091-148) + 1% P/S (supplier Hyclone, product number SV30010) + 0.05 mM 2-Mercaptoethanol (supplier Sigma, product number M6250)]. • b) Cells in the logarithmic growth phase were harvested, and the total cell count and viable cell count were determined using a Vi-cell cell counter (supplier: BECKMAN COULTER, product number 2785198). • c) Cell density was adjusted using complete culture medium. Then, the cells were inoculated at 1500 cells per well in a 384-well cell culture plate (supplier Greiner, product number 781090). • d) The cells in the 384-well plate were cultured at 37 °C and 5% CO2 overnight. • e) A 10-fold drug solution was prepared, and then the serially diluted compound was transferred to the corresponding assay wells of the 384-well cell plate so that the final assay concentration was 1000 nM, with 9 concentrations, 3-fold dilutions, and triplicates for each drug concentration. • f) The cells in the 384-well plate with the drug added were cultured at 37 °C and 5% CO2 for another 120 hours. • g) The cells were removed from the incubator, and allowed to equilibrate at room temperature for 30 minutes. The cell state and compound solubility were observed under a microscope. • h) An equal volume of CellTiterGlo solution (supplier Promega, product number G7573) was added to each well, and the plate was incubated at room temperature for 30 minutes. • i) Then, the luminescent signal value was detected on an EnVision instrument (supplier PerkinElmer, product number 2441715).
(§2) The data were analyzed using XL-fit software (supplier: ID Business Solutions Ltd., software version: XL fit 5.5.0.5). Nonlinear regression was performed using X=Log(X), and the X values were transformed using a four-parameter Logistic model 205, from which the IC50 values were calculated. Inhibition rate % = (Max−samplevalue)/Max*100.(Max:DMSOnegativecontrol) [formula]

OCI-LY10 cells = assay: Viability assay of OCI-LY10 cells (CTG); details: Homo sapiens, OCI-Ly10, 120 h, cell viability, read-out: OCl-Ly10
Method: as §1, §2

COc1ccc(F)cc1C(=O)NCc1ccc(-c2ncc(-c3ccc(N4CCN(C)C[C@H]4C)cn3)c3[nH]nc(N)c23)cc1 [Example 75, (R)-N-(-4-(3-amino-7-(5-(2,4-dimethylpiperazin-1-yl)pyridin-2-yl) 1H-pyrazolo[4,3-c]pyridin-4-yl)benzyl)-5-fluoro-2-methoxybenzamide]
IC50 [1]: ≤ 5 nM
IC50 (TMD8 cells): ≤ 5 nM
IC50 (OCI-LY10 cells): ≤ 5 nM

COc1ccc(F)cc1C(=O)NCc1ccc(-c2ncc(-c3ccc(N4CCOCC4)cn3)c3[nH]nc(N)c23)cc1 [Example 76, N-(4-(3-amino-7-(5-morpholinopyridin-2-yl)-1H-pyrazolo[4,3-c]pyridin-4-yl)benzyl)-5-fluoro-2-methoxybenzamide]
IC50 [1]: ≤ 5 nM
IC50 (TMD8 cells): ≤ 5 nM
IC50 (OCI-LY10 cells): ≤ 5 nM

COc1ccc(F)cc1C(=O)NCc1ccc(-c2nc(C3CCOCC3)cc3[nH]nc(N)c23)cc1 [Example 115, N-(4-(3-amino-6-(tetrahydro-2H-pyran-4-yl)-1H-pyrazolo[4,3-c]pyridin-4-yl)benzyl)-5-fluoro-2-methoxybenzamide]
IC50 [1]: > 50 nM
IC50 (TMD8 cells): 10 to 50 nM
IC50 (OCI-LY10 cells): 10 to 50 nM
